Measurements published in paper PMC12271471, “Direct synthesis of mycophenolic acid aryl esters with antioxidant and antiproliferative properties” (Scientific Reports, 2025).

Columns and labels:
T-Jurkat cells [1] = test: XTT cytotoxicity test on T-Jurkat cell line; type: cell-based, human; settings: for IC50: Homo sapiens, T-Jurkat, 48 h, viability, mean ± SD, read-out: Relative IC50 T-Jurkat (XTT); for IS internal selectivity (IC50 PBMCs / IC50 T-Jurkat): ratio between XTT IC50 values for PBMCs and T-Jurkat cell line
Procedure: Table 3 presents the IC50 values obtained from the XTT test on PBMCs and the T-Jurkat cell line, using MPA and MMF as standards. These values indicate the concentration of each compound required to reduce the viability of PBMCs (healthy cells) and T-Jurkat cells (T-cell leukemia) by 50% compared to the control. Cells were treated with compounds for 72 h (PBMCs) or 48 h (T-Jurkat), followed by a colorimetric XTT test. The results are illustrated in ESI Fig. S2 as a viability curve in relation to concentration.
Biological evaluation — PBMC and T-Jurkat cells
The T-Jurkat cell line (Clone E6-1, ATCC TIB-152), derived from a human acute T-cell leukemia, was obtained from the cell bank of the Department of Medical Immunology at the Medical University of Gdańsk. Before experimentation, the cells were thawed and cultured for about 7 days to reach the logarithmic phase of growth. The T-Jurkat cell line was suspended in a complete RPMI medium, which included RPMI-1640, 10% FBS, penicillin (100 U/ml), and streptomycin ([…]).
Human peripheral blood mononuclear cells (PBMCs) were isolated from buffy coats provided by anonymous, healthy volunteers with an average age of 35±4 years during routine transfusion procedure. These samples were received by the Authors from the Regional Centre for Blood Donation and Treatment in Gdańsk (Poland). […]
solely for PBMCs isolation. PBMCs were suspended in a complete X-VIVO medium, consisting of X-VIVO20, 10% heat-inactivated human AB serum, penicillin (100 U/ml), and streptomycin ([…]).
MPA derivatives preparation
To achieve the desired concentrations of the tested compounds, the substances were first dissolved in DMSO to reach a final concentration of 0.01 M. The solutions were then diluted in the appropriate additive-free medium (RPMI-1640 for T-Jurkat cells and X-VIVO20 for PBMCs) to obtain […]
Peripheral blood mononuclear cells were isolated by gradient centrifugation, as described previously. Buffy coats were diluted with phosphate-buffered saline (PBS, pH = 7.4, ThermoFisher Scientific) in a 1:1 ratio, layered at Ficoll-Paque™ PLUS (VWR International), and centrifuged at 800 × g for 20 minutes. The PBMC layer was collected and washed twice with PBS (1st wash: 600 × g for 10 minutes; 2nd wash: 600 × g for 5 minutes). Cell amount and viability were assessed using the Bio-Rad TC20™ automated cell counter combined with trypan blue staining.
XTT dye-based in vitro cytotoxicity test
The cytotoxic effects of mycophenolic acid (MPA) derivatives were assessed using an in vitro XTT-based assay (Roche). PBMCs in complete X-VIVO20 medium and T-Jurkat cells in complete RPMI-1640 medium were seeded into 96-well plates at a concentration of 5∙10^5 cells/50 µl per well. 50 µl of tested compounds were added to the experimental wells to achieve final concentrations of 50, 25, 10, 5, 1, 0.1, and 0.01 µM. The background control consisted of the medium without cells, while untreated cells served as the positive control. After incubating for 48 hours for T-Jurkat cells and 96 hours for PBMCs in a humidified atmosphere with 5% CO2 at 37°C, 50 µl of freshly prepared XTT reagent was added to all wells according to the manufacturer's instructions. The plates were then incubated for an additional 24 hours under the same conditions. The conversion of the water-soluble yellow XTT tetrazolium salt to orange formazan was quantified by measuring the optical density (OD) at 450 nm using an Agilent BioTek Epoch Microplate Spectrophotometer (Agilent Technologies), with a reference wavelength of 690 nm. The results were expressed as IC50 values for compounds that […]
inhibited cell viability by more than 50%. […]
PBMCs were suspended in a 15 mL centrifuge tube at a concentration of 10-30 × 10⁶ cells in 1 mL of PBS, then, 2 μL of 1 mM VPD 450 dye solution was added, incubated for 15 min at 37°C, washed with a 9-fold volume of warm PBS and centrifuged at 400 x g for 5 min. Then, the cells were suspended […]

T-Jurkat cells [2] = test: VPD450 proliferation test (flow cytometry) on T-Jurkat cells; type: cell-based, human; settings: for EC50: Homo sapiens, T-Jurkat, 48 h, mean ± SD; for SI selectivity index T-Jurkat (IC50/EC50): ratio between IC50 (XTT) and EC50 (VPD450) on T-Jurkat cell line; for IS internal selectivity (EC50 PBMCs / EC50 T-Jurkat): ratio between VPD450 EC50 values for PBMCs and T-Jurkat cell line
Procedure: These values indicate the concentration of any compound at which proliferation of PBMCs (healthy cells), and T-Jurkat cells (T-cell leukemia), is inhibited by 50% compared to the control. Cells were treated with the compounds for 72 h (PBMCs) or 48 h (T-Jurkat), followed by a […] VPD450 test. The results are presented in ESI Fig. S3 as proliferation curves concerning concentration.
ESI Figure 3. Concentration-dependent change in proliferation under the treatment of ester derivatives of MPA. (A) VPD450-labelled PBMCs were cultured in the presence of different concentrations (100; 50; 25; 10; 1; 0.1, and 0.01 μM) of MPA, MMF, and ester derivatives, and stimulated with magnetic beads coated with anti-CD3 and anti-CD28 antibodies for 72 hours. (B) VPD450-labelled T-Jurkat cells were cultured in the presence of different concentrations (100; 10; 1; 0.1 and 0.01 μM) of MPA and ester derivatives for 48 hours. The plots were separated based on the type of ester derivative (P or MP). Cell proliferation was analyzed using flow cytometry. The results are expressed […]
(1 picture or pasted object on this page, not shown here) […]
inhibited cell viability by more than 50%. Each experiment was conducted in triplicate, and the final […]
VPD450 dye-based in vitro cell proliferation test
PBMCs and T-Jurkat cells were washed twice with warm PBS (37°C), re-suspended in fresh PBS at a final concentration of 10-30∙10^6 cells/ml, and labelled with 1 µl of VPD450 (BD Biosciences) at 37°C for 15 minutes, with vortexing every 5 minutes to ensure uniform staining. Subsequently, cells were washed with PBS, then with the complete medium (X-VIVO20 for PBMCs and RPMI-1640 for T-Jurkat cells), next re-suspended in fresh complete medium and seeded into 96-well plates at a concentration of 1∙10^6 cells per well. PBMCs were additionally stimulated with magnetic beads coated with anti-CD3 and anti-CD28 antibodies (Invitrogen) at a 2:1 cell-to-bead ratio. To the experimental wells, 100 µl of the MPA derivatives were added to achieve final concentrations of 50, 25, 10, 5, 1, 0.1, and 0.01 µM. In parallel, control wells containing stained but unstimulated cells and stained, stimulated cells were prepared at the same concentration. Cell proliferation was analyzed using an LSRFortessa flow cytometer (BD Biosciences) and Kaluza C Flow Cytometry Analysis Software (Beckman Coulter). […]
Statistical analysis was conducted using GraphPad Prism 9 (GraphPad Software Inc).
Differences between MMF, MPA and its new derivatives were assessed using a two-tailed unpaired Student’s t-test, with statistical significance defined as p < 0.05. EC50 and IC50 values were determined by fitting data to a four-parameter non-linear regression model in GraphPad Prism 9. Statistical significance was evaluated using the t-test.

SMILES | IC50 (T-Jurkat cells [1]) [nM] | IS internal selectivity (IC50 PBMCs / IC50 T-Jurkat) (T-Jurkat cells [1]) | EC50 (T-Jurkat cells [2]) [nM] | SI selectivity index T-Jurkat (IC50/EC50) (T-Jurkat cells [2]) | IS internal selectivity (EC50 PBMCs / EC50 T-Jurkat) (T-Jurkat cells [2])
COC(=O)/C=C/c1ccc(OC(=O)CC/C(C)=C/Cc2c(O)c3c(c(C)c2OC)COC3=O)c(OC)c1 [MP7] | 1406 ± 4 | 21.645 | 4923 ± 34 | 0.286 | 1.571
C=CCc1ccc(OC(=O)CC/C(C)=C/Cc2c(O)c3c(c(C)c2OC)COC3=O)c(OC)c1 [MP8] | 1705 ± 2 | 10.429 | 1740 ± 23 | 0.983 | 0.665
COc1c(C)c2c(c(O)c1C/C=C(\C)CCC(=O)Oc1cc(C)ccc1C(C)C)C(=O)OC2 [P2] | 2473 ± 4 | 6.611 | 4477 ± 33 | 0.552 | 0.317
COc1cc(C=O)ccc1OC(=O)CC/C(C)=C/Cc1c(O)c2c(c(C)c1OC)COC2=O [MP4] | 5330 ± 5 | 4.406 | 7509 ± 36 | 0.710 | 0.386
COc1ccccc1OC(=O)CC/C(C)=C/Cc1c(O)c2c(c(C)c1OC)COC2=O [MP1] | 982 ± 5 | 15.051 | 780 ± 34 | 1.259 | 1.418
COc1c(C)c2c(c(O)c1C/C=C(\C)CCC(=O)Oc1ccc(C=O)cc1)C(=O)OC2 [P5] | 1582 ± 3 | 6.288 | 2357 ± 23 | 0.671 | 0.703
COC(=O)/C=C/c1ccccc1OC(=O)CC/C(C)=C/Cc1c(O)c2c(c(C)c1OC)COC2=O [P4] | 1658 ± 3 | 15.613 | 3530 ± 45 | 0.470 | 1.380
COc1cc(C=O)cc(OC)c1OC(=O)CC/C(C)=C/Cc1c(O)c2c(c(C)c1OC)COC2=O [MP3] | 4443 ± 7 | 2.383 | 4458 ± 40 | 0.997 | 3.083
COc1c(C)c2c(c(O)c1C/C=C(\C)CCC(=O)Oc1ccc(CCC(C)=O)cc1)C(=O)OC2 [P7] | 2410 ± 2 | 20.869 | 2230 ± 44 | 1.083 | 0.470
COc1c(C)c2c(c(O)c1C/C=C(\C)CCC(=O)OCCN1CCOCC1)C(=O)OC2 [MMF, mycophenolate mofetil, reference compound] | 740 ± 34 | 22.456 | 609 ± 30 | 1.216 | 1.704
COc1c(C)c2c(c(O)c1C/C=C(\C)CCC(=O)Oc1ccc3c(c1)OCO3)C(=O)OC2 [P1] | 1073 ± 2 | 116.938 | 2010 ± 42 | 0.533 | 0.573
C/C=C/c1ccc(OC(=O)CC/C(C)=C/Cc2c(O)c3c(c(C)c2OC)COC3=O)c(OC)c1 [MP9] | 1964 ± 2 | 10.770 | 1840 ± 43 | 1.070 | 1.283
COc1cccc(OC)c1OC(=O)CC/C(C)=C/Cc1c(O)c2c(c(C)c1OC)COC2=O [MP2] | 1748 ± 6 | 12.883 | 2640 ± 35 | 0.662 | 2.042
COc1c(C)c2c(c(O)c1C/C=C(\C)CCC(=O)O)C(=O)OC2 [MPA, Mycophenolic acid] | 527 ± 40 | 35.558 | 924 ± 34 | 0.570 | 1.249
